The values that follow come from patent publication US5318970A, “Isoxazole compounds, pharmaceutically acceptable salts thereof and medical uses thereof” (Taiho Pharmaceutical Co., Ltd., priority 1990, dated 1994).

One experiment concerns the target T1, 5-Lipoxygenase (Cavia porcellus, UniProt A0A286X958).
T1 construct: the polymorphonuclear leukocytes were collected and the cytosol fraction was obtained as an enzyme source; endogenous in cells; host or cells: guinea pig peritoneal polymorphonuclear leukocytes (casein-elicited), cytosol fraction
T1 sequence (A0A286X958 1-674): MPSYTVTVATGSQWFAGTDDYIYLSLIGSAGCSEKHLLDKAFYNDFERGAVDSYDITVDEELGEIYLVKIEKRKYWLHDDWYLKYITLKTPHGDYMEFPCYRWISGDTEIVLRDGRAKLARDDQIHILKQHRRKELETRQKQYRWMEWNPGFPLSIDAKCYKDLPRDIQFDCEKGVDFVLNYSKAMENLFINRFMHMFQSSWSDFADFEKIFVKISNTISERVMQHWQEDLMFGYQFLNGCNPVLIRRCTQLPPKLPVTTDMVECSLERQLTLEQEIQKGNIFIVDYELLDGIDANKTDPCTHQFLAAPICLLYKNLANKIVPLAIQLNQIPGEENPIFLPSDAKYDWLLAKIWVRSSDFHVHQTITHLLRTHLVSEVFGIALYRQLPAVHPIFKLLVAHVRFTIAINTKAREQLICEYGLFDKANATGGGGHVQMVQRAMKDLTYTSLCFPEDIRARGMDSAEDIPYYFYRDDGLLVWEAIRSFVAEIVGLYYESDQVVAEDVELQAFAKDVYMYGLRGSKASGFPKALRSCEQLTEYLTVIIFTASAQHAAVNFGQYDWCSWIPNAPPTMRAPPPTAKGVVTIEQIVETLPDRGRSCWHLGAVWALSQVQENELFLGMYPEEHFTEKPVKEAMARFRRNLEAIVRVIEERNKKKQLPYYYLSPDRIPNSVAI
Put plainly: 5-Lipoxygenase inhibitory effect (14C-arachidonic acid to 5-hydroxyeicosatetraenoic acid, cytosol of polymorphonuclear leukocytes). The experiment is classed as biochemical. As to conditions: guinea pig polymorphonuclear leukocyte cytosol; 5-hydroxyeicosatetraenoic acid by thin layer chromatography. How it is done: (2) 5-Lipoxygenase inhibitory effect
The assay was carried out by the method described in Kenkichi Ochi et al., J. Biol. Chem., 258, 5754-5758 (1983).
Casein was injected into the abdominal cavity of a guinea pig, and the polymorphonuclear leukocytes were collected and the cytosol fraction was obtained as an enzyme source. ^14 C-arachidonic acid was reacted with the enzyme and the test drugs at various concentrations over a predetermined period of time. The obtained 5-hydroxyeicosatetraenoic acid was separated by thin layer chromatography and the radioactivity was determined. The IC50 values were calculated by the comparison with the radioactivity of the control.

Another experiment concerns the target Cyclooxygenase. Put plainly: Cyclooxygenase inhibitory effect (14C-arachidonic acid to prostaglandin E2, seminal vesicular gland microsomes). It counts as biochemical. As to conditions: prostaglandin E2 by thin layer chromatography. How it is done: (1) Cyclooxygenase Inhibitory effect
This assay was carried out by the method described in Russell J. Taylor et al., Biochem. Pharmacol., 25, 2479-2484 (1976).
^14 C-arachidonic acid was reacted with seminal vesicular gland microsomes and the test drugs at various concentrations over a predetermined period of time and the obtained prostaglandin E2 was separated by thin layer chromatography. The radioactivity of prostaglandin E2 was determined by liquid scintillation counter. The IC50 values were calculated by the comparison with the radioactivity of the control.

What is called IC50 is the concentration needed to halve the response being measured. The low end stands for inhibition by little substance, the high end for a need for much substance. Take `COc1ccc(-c2noc(CC(=O)NCCN3CCN(CCCCCCCCCCO)CC3)c2-c2ccc(OC)cc2)cc1` [Compound 6]: the results for the concentration for half-maximal inhibition (IC50) on 5-Lipoxygenase and against Cyclooxygenase were 1800 nM and 121 nM, respectively.

As to `CCCCCCCCCCN1CCN(C(=O)CNC(=O)Cc2onc(-c3ccc(OC)cc3)c2-c2ccc(OC)cc2)CC1` [Compound 8], the IC50 amounted to 5900 nM against 5-Lipoxygenase and 66 nM against Cyclooxygenase.

In the case of `COc1ccc(-c2noc(CC(=O)NC(CN3CCN(CCCCCCCCCCO)CC3)c3ccccc3)c2-c2ccc(OC)cc2)cc1` (stereo not drawn) [Compound 7], the half-maximal inhibitory concentration (IC50) on 5-Lipoxygenase amounted to 2500 nM; against Cyclooxygenase it was 146 nM.
